The values that follow come from patent US20240174723A1, “STAPLED ANTIMICROBIAL PEPTIDES (STAMPS) AND USES THEREOF” (Lytica Therapeutics, Inc., priority 2021, published 2024).

≈ marks a conversion by molar mass, not a printed value. Positions of bridges follow the written chain, without caps; N, C: chain ends. Non-standard residues stand in square brackets, D forms with d. Residues, ends and D or L forms follow the SMILES beside them. PEG5 = NCCOCCOCCOCCOCCOCCC(=O)O; S5 = C=CCCC[C@](C)(N)C(=O)O; Dap = NC[C@H](N)C(=O)O

The subject of data set [1] is Human Liver Cells (HepG2). In words: in vitro. It is filed as cell-based. The settings on record: 48 hours. In short, it runs like this:
(§1)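 HepG2 cells in EMEM with 10% FBS, allowed 4 h to attach, then exposed to serial dilutions of StAMPs (from a 5 mg/mL water stock) or vehicle. After 48 h at 37 °C, viability read by CellTiter-Glo luminescence.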

Data set [2] deals with S. aureus. It is filed as cell-based, Staphylococcus aureus. The essentials: (§2)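 Read-out is visible growth: the MIC is the minimum peptide concentration showing none after 20-24 h at 37 °C. Peptides were serially diluted from water stocks and mixed with log-phase bacteria (final 5×10^5 CFU/ml) in Mueller-Hinton or cation-adjusted Mueller-Hinton broth.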
Data set [3] deals with Human Renal Proximal Tubule Epithelial Cells (RPTEC). In words: in vitro. It is filed as cell-based. The settings on record: 90 min. In short, it runs like this:
(§3)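 RPTEC or HepG2 cells plated overnight, given fresh media, then serial StAMP dilutions (from 5 mg/mL water stock) or vehicle at 37 °C. Cytotoxicity read as LDH release into media, absorbance 490 nm; renal toxicity after 90 min, liver toxicity after 48 h incubation.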

The subject of data set [4] is E. coli. It is filed as cell-based, Escherichia coli. In short, it runs like this: as §2
Data set [5] relates to A. baumannii. The data set is classed as cell-based, Acinetobacter baumannii. In short, it runs like this: as §2
Data set [6] has as its system K. pneumoniae. The data set is classed as cell-based, Klebsiella pneumoniae. The essentials: as §2
Data set [7] has as its system P. aeruginosa. It is filed as cell-based, Pseudomonas aeruginosa. In short, it runs like this: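 Broth microdilution adapted from CLSI in MHB or cation-adjusted MHB; log-phase P. aeruginosa at 5×10^5 CFU/ml final with serially diluted stapled peptides. Incubated 20-24 h at 37 °C; MIC is the lowest concentration without visible growth.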
Data set [8] is described as follows: in vitro. The data set is classed as cell-based. The settings on record: human, Inhibitory Concentration at 50% Cytotoxicity (IC50) Human Liver Cells (HepG2). The essentials: as §1
Data set [9] is described as follows: in vitro. The data set is classed as cell-based. The settings on record: human. In short, it runs like this: as §3

On to `CC(C)[C@@H]1NC(=O)[C@@](C)(NC(=O)[C@H](C)NC(=O)[C@H](CCCCN)NC(=O)CNC(=O)[C@H](Cc2ccccc2)NC(=O)[C@H](CCCCN)NC(=O)[C@H](CCCCN)NC(=O)[C@H](CCCCN)NC(=O)[C@H](CO)NC(=O)[C@H](Cc2c[nH]cn2)NC(=O)[C@]2(C)CCCC=CCCC[C@](C)(NC(=O)CN)C(=O)NCC(=O)N[C@@H](CCCCN)C(=O)N[C@@H](Cc3ccccc3)C(=O)N2)CCCC=CCCC[C@@](C)(C(=O)N[C@@H](C)C(=O)N[C@@H](CCCCN)C(=O)N[C@@H](CCCCN)C(N)=O)NC(=O)[C@H](CCC(=O)O)NC(=O)[C@H](Cc2c[nH]c3ccccc23)NC1=O` (single isomer, unassigned) [compound 65], for which the “Inhibitory Concentration at 50% Cytotoxicity (IC50) Human Liver Cells (HepG2)” value in data set [1] came to 150 µg/mL. Moreover, the “Minimum Inhibitory Concentration (MIC) S. aureus” value in [2] was determined as 32 µg/mL. In addition, the “Inhibitory Concentration at 50% Cytotoxicity (IC50) Human Renal Proximal Tubule Epithelial Cells (RPTEC)” value in data set [3] is 110 µg/mL. Also, the “Minimum Inhibitory Concentration (MIC) E. coli” value in data set [4] worked out at 4 µg/mL. For the same molecule, the “Minimum Inhibitory Concentration (MIC) A. baumannii” value in data set [5] is 2 µg/mL.

On to `CC(C)[C@@H]1NC(=O)[C@@](C)(NC(=O)[C@H](C)NC(=O)[C@H](CCCCN)NC(=O)CNC(=O)[C@H](Cc2ccccc2)NC(=O)[C@H](CCCCN)NC(=O)[C@H](CCCCN)NC(=O)[C@H](CCCCN)NC(=O)[C@H](CCCCN)NC(=O)[C@H](CCN)NC(=O)[C@]2(C)CCCC=CCCC[C@](C)(NC(=O)CN)C(=O)NCC(=O)N[C@@H](CCCCN)C(=O)N[C@@H](Cc3ccccc3)C(=O)N2)CCCC=CCCC[C@@](C)(C(=O)N[C@@H](C)C(=O)N[C@@H](CCCCN)C(=O)N[C@@H](CCCCN)C(N)=O)NC(=O)[C@H](CCC(=O)O)NC(=O)CNC1=O` (single isomer, unassigned) [compound 79], for which the “Minimum Inhibitory Concentration (MIC) K. pneumoniae” value in data set [6] was found to be 8 µg/mL. In addition, in data set [1], the “Inhibitory Concentration at 50% Cytotoxicity (IC50) Human Liver Cells (HepG2)” value was found to be 113 µg/mL. In [2], the “Minimum Inhibitory Concentration (MIC) S. aureus” value is above 64 µg/mL. For the same molecule, the “Minimum Inhibitory Concentration (MIC) E. coli” value in data set [4] came to 1 µg/mL. Besides, the “Minimum Inhibitory Concentration (MIC) P. aeruginosa” value in data set [7] worked out at 1 µg/mL. For the same molecule, the “Minimum Inhibitory Concentration (MIC) A. baumannii” value in data set [5] stood at 0.5 µg/mL.

`CC(C)[C@@H]1NC(=O)[C@@](C)(NC(=O)[C@H](C)NC(=O)[C@H](CCCCN)NC(=O)CNC(=O)[C@H](Cc2ccccc2)NC(=O)[C@H](CCCCN)NC(=O)[C@H](CCCCN)NC(=O)[C@H](CCCCN)NC(=O)[C@H](CCCCN)NC(=O)[C@H](CCCCN)NC(=O)[C@]2(C)CCCC=CCCC[C@](C)(NC(=O)CN)C(=O)NCC(=O)N[C@@H](CCCCN)C(=O)N[C@@H](Cc3ccccc3)C(=O)N2)CCCC=CCCC[C@@](C)(C(=O)N[C@@H](C)C(=O)N[C@@H](CCCCN)C(=O)N[C@@H](CCCCN)C(=O)NCCOCCOCCOCCOCCOCCC(N)=O)NC(=O)[C@H](CCC(=O)O)NC(=O)CNC1=O` [compound 75] (H-G[S5]GKF[S5]KKKKKFGKA[S5]VGE[S5]AKK[PEG5]-NH2; staple 2-6, 16-20): the “Minimum Inhibitory Concentration (MIC) K. pneumoniae” value in [6] is 8 µg/mL. This molecule came in with an IC50 at 48 hours in data set [8] of 357 µg/mL (≈ 125 µM). In addition, in data set [2], the “Minimum Inhibitory Concentration (MIC) S. aureus” value was above 64 µg/mL. Moreover, the half-maximal inhibitory concentration (IC50) at 90 min in data set [9] is above 200 µg/mL. The “Minimum Inhibitory Concentration (MIC) E. coli” value in data set [4] came out at 4 µg/mL. Also, the “Minimum Inhibitory Concentration (MIC) P. aeruginosa” value in [7] was 4 µg/mL. The “Minimum Inhibitory Concentration (MIC) A. baumannii” value in [5] is 2 µg/mL.

As to `CC(C)[C@@H]1NC(=O)[C@@](C)(NC(=O)[C@H](C)NC(=O)[C@H](CN)NC(=O)CNC(=O)[C@H](Cc2ccccc2)NC(=O)[C@H](CN)NC(=O)[C@H](CN)NC(=O)[C@H](CN)NC(=O)[C@H](CN)NC(=O)[C@H](CN)NC(=O)[C@]2(C)CCCC=CCCC[C@](C)(NC(=O)CN)C(=O)NCC(=O)N[C@@H](CN)C(=O)N[C@@H](Cc3ccccc3)C(=O)N2)CCCC=CCCC[C@@](C)(C(=O)N[C@@H](C)C(=O)N[C@@H](CN)C(=O)N[C@@H](CN)C(=O)NCC(N)=O)NC(=O)[C@H](CCC(=O)O)NC(=O)CNC1=O` [compound 76] (H-G[S5]G[Dap]F[S5][Dap][Dap][Dap][Dap][Dap]FG[Dap]A[S5]VGE[S5]A[Dap][Dap]G-NH2; staple 2-6, 16-20), in data set [6], the “Minimum Inhibitory Concentration (MIC) K. pneumoniae” value came out at 16 µg/mL. The same molecule registered a 50% inhibitory concentration (IC50) at 48 hours in [8] above 200 µg/mL. Moreover, the “Minimum Inhibitory Concentration (MIC) S. aureus” value in data set [2] stood at 64 µg/mL. Besides, in data set [9], the half-maximal inhibitory concentration (IC50) at 90 min was above 200 µg/mL. Moreover, the “Minimum Inhibitory Concentration (MIC) E. coli” value in [4] is 1 µg/mL. Also, the “Minimum Inhibitory Concentration (MIC) P. aeruginosa” value in [7] worked out at 16 µg/mL. In addition, in data set [5], the “Minimum Inhibitory Concentration (MIC) A. baumannii” value was found to be 16 µg/mL.

As to `CC(C)[C@@H]1NC(=O)[C@@](C)(NC(=O)[C@H](C)NC(=O)[C@H](CCCCN)NC(=O)CNC(=O)[C@H](Cc2ccccc2)NC(=O)[C@H](CCCCN)NC(=O)[C@H](CCCCN)NC(=O)[C@H](CCCCN)NC(=O)[C@H](CCCCN)NC(=O)[C@H](CCCCN)NC(=O)[C@]2(C)CCCC=CCCC[C@](C)(NC(=O)CN)C(=O)NCC(=O)N[C@@H](CCCCN)C(=O)N[C@@H](Cc3ccccc3)C(=O)N2)CCCC=CCCC[C@@](C)(C(=O)N[C@@H](C)C(=O)N[C@@H](CCCCN)C(=O)N[C@@H](CCCCN)C(=O)NCC(=O)NCC(=O)N[C@@H](CCC(N)=O)C(N)=O)NC(=O)[C@H](CCC(=O)O)NC(=O)CNC1=O` [compound 77] (H-G[S5]GKF[S5]KKKKKFGKA[S5]VGE[S5]AKKGGQ-NH2; staple 2-6, 16-20), the “Minimum Inhibitory Concentration (MIC) K. pneumoniae” value in data set [6] came to 16 µg/mL. In data set [8], this molecule gave an IC50 at 48 hours above 200 µg/mL. Further, the “Minimum Inhibitory Concentration (MIC) S. aureus” value in data set [2] was above 64 µg/mL. The molecule further returned an IC50 at 90 min in data set [9] above 200 µg/mL. Moreover, in data set [4], the “Minimum Inhibitory Concentration (MIC) E. coli” value came to 4 µg/mL. In data set [7], the “Minimum Inhibitory Concentration (MIC) P. aeruginosa” value was 4 µg/mL. Besides, the “Minimum Inhibitory Concentration (MIC) A. baumannii” value in data set [5] came to 3 µg/mL.

On to `CC(C)[C@@H]1NC(=O)[C@@](C)(NC(=O)[C@H](C)NC(=O)[C@H](CN)NC(=O)CNC(=O)[C@H](Cc2ccccc2)NC(=O)[C@H](CN)NC(=O)[C@H](CN)NC(=O)[C@H](CN)NC(=O)[C@H](CN)NC(=O)[C@H](CN)NC(=O)[C@]2(C)CCCC=CCCC[C@](C)(NC(=O)CN)C(=O)NCC(=O)N[C@@H](CN)C(=O)N[C@@H](Cc3ccccc3)C(=O)N2)CCCC=CCCC[C@@](C)(C(=O)N[C@@H](C)C(=O)N[C@@H](CCCCN)C(=O)N[C@@H](CCCCN)C(N)=O)NC(=O)[C@H](CCC(=O)O)NC(=O)CNC1=O` [compound 78] (H-G[S5]G[Dap]F[S5][Dap][Dap][Dap][Dap][Dap]FG[Dap]A[S5]VGE[S5]AKK-NH2; staple 2-6, 16-20), for which, in [6], the “Minimum Inhibitory Concentration (MIC) K. pneumoniae” value is 16 µg/mL. In data set [8], this molecule displayed a half-inhibitory concentration (IC50) at 48 hours above 200 µg/mL. Besides, the “Minimum Inhibitory Concentration (MIC) S. aureus” value in [2] was above 64 µg/mL. Also, the half-inhibitory concentration (IC50) at 90 min in [9] was above 200 µg/mL. For the same molecule, the “Minimum Inhibitory Concentration (MIC) E. coli” value in [4] is 16 µg/mL. Further, the “Minimum Inhibitory Concentration (MIC) P. aeruginosa” value in [7] came to 2 µg/mL. The “Minimum Inhibitory Concentration (MIC) A. baumannii” value in data set [5] is 8 µg/mL.

As usually defined, the IC50 is the concentration at which inhibition is half-maximal. Higher therefore signals weaker potency.
